Reference: patent US11324728B2, “Dosing regimens for the treatment of fungal infections” (Seren Pharmaceuticals Inc., priority 2017, dated 2022)

Assay: Pharmacokinetics: toenail and plasma ravuconazole concentrations
Assay type: in vivo, human
Description: A Phase II clinical pharmacology study was conducted in subjects with onychomycosis of the toenail. The study investigated the pharmacokinetics, efficacy and safety of three different dosing regimens of fosravuconazole. […] The three treatment groups were as follows: • a.

[1] = fosravuconazole 100 mg (once daily dose) group
[2] = fosravuconazole 400 mg (pulse treatment) group

- time toenail ravuconazole concentrations maintained at MIC90 or higher, longer than in 400 mg (pulse treatment) group [1]: about 4 weeks
- toenail ravuconazole concentrations compared with 400 mg (pulse treatment) group (fosravuconazole 100 mg (once daily dose) group, Week 20 and onwards): fluctuated at higher levels
- toenail ravuconazole concentrations, arithmetic mean and geometric mean (fosravuconazole 200 mg (pulse treatment) group): ≤ 60 ng/mL
SMILES: C[C@@H](c1nc(-c2ccc(C#N)cc2)cs1)[C@](O)(Cn1cncn1)c1ccc(F)cc1F [ravuconazole, 4-[2-[(2R,3R)-3-(2,4-difluorophenyl)-3-hydroxy-4-(1,2,4-triazol-1-yl)butan-2-yl]-1,3-thiazol-4-yl]benzonitrile]
- toenail ravuconazole concentrations versus MIC90, arithmetic mean [1]: exceeded MIC90 in arithmetic mean at Week 8 and maintained at MIC90 or higher until Week 28
- toenail ravuconazole concentrations versus MIC90, geometric mean [1]: exceeded MIC90 at Week 12 after the study treatment initiation and maintained at MIC90 or higher until Week 24
- toenail ravuconazole concentrations versus MIC90, arithmetic mean [2]: exceeded MIC90 in arithmetic mean at Week 8 after the study treatment initiation and maintained at MIC90 or higher until Week 24
- toenail ravuconazole concentrations versus MIC90, geometric mean [2]: exceeded MIC90 at Week 12 after the study treatment initiation and maintained at MIC90 or higher until Week 24
